Literature values, collected in US6034286A, “Processes for producing saturated alcohols” (Union Carbide Chemicals & Plastics Technology Corporation, priority 1997, dated 2000).

Legend:
[1] = Table II, promoter; approximate values
[2] = Table I, organophosphorus ligand

For `N#CCC#N` [CNCH2 CN], the pKa [1] is given as 11.
In the case of `c1ccc(P(c2ccccc2)c2ccccc2)cc1` [Triphenylphosphine], the pKb [2] is given as 2.74.
